Measured values from patent publication US20050009837A1, “Modulators of lipid metabolism and methods of use” (City of Hope, priority 2003, published 2005).

Legend:
SREBP-1c expression = experiment: Real-time PCR of SREBP-1c expression in HepG2 cells; type: cell-based, human; settings: Clotrimazole 10 μM plus T0901317 100 nM, 24 hours
Description: Real time PCR was then performed on cDNA derived from RNA isolated form the treated HepG2 cells as follows. Real time quantitative PCR assays were performed using an Applied Biosystems 7700 sequence detector (Applied Biosystems). Each reaction mixture contained 50 ng cDNA, 1.25 pmol each forward and reverse primer, and […] 2× SYBR Green PCR master mix (Applied Biosystems) in a final volume of 25 μl. The PCR conditions were 50° C. for 2 min, 95° C. for 10 min, and 40 cycles of 95° C. for 15 sec and 60° C. for 1 min. Samples were run in duplicate for each primer pair. Expression of glyceraldehyde-3-phosphate dehydrogenase (GAPDH) was analyzed in parallel as an internal control. Each sample was normalized to GAPDH and is represented in the Figure showing the results as arbitrary units with the expression levels in untreated cells assigned a value of one. The primer sequences are as follows: human SREBP-1c forward [NT] ID NO:1); human SREBP-1c reverse [NT] ID NO:2); human GAPDH forward [NT] ID NO:3) and human GAPDH reverse [NT] ID NO:4).

human CAR = human CAR (Homo sapiens, UniProt Q14994); settings: cited from earlier work
NIH 3T3-L1 cells = experiment: Toxicity in NIH 3T3-L1 cells during differentiation; type: cell-based; settings: 200 nM T0901317, 7.5 μM Clotrimazole or both, 7 days
Description: NIH 3T3-L1 cells were maintained in growth media consisting of Dulbecco's modified Eagle's medium (DMEM) supplemented with 10% calf bovine serum (CBS), 50 U/ml penicillin G and 50 μg/ml streptomycin sulfate. To induce NIH 3T3-L1 differentiation into adipocytes, confluent cells were transferred from their growth media to DMEM containing 10% fetal bovine serum (FBS), 5 μg/ml insulin, 0.5 mM 3-isobutyl-1-methylxanthine (IBMX) and 1 μM dexamethasone for 7 days. During the differentiation period, cells also optionally received 200 nM T0901317, 7.5 μM Clotrimazole or both.

[1] = biological target: T1, LXRα-RXR heterodimers and receptor interaction domains of coactivator SRC1 (Homo sapiens, UniProt Q13133); experiment: LXR-coactivator association, VP-L-hLXRα / L-hRXRα / GAL4-SRC1 in CV-1 cells; type: cell-based; settings: 20 μM, coactivator GAL4-SRC1, CV-1 cells
T1 construct: expressed in transfected cells; host or cells: CV-1 cells
T1 sequence (Q13133 209-447 limits assumed): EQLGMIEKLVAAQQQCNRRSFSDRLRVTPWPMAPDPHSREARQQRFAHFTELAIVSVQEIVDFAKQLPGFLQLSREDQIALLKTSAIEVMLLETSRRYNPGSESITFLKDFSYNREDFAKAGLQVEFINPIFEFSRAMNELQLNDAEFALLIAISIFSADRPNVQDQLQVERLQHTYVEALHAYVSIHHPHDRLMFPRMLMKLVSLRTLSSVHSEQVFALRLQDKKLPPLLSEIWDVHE
T1 sequence (P19793 227-458 partner limits assumed): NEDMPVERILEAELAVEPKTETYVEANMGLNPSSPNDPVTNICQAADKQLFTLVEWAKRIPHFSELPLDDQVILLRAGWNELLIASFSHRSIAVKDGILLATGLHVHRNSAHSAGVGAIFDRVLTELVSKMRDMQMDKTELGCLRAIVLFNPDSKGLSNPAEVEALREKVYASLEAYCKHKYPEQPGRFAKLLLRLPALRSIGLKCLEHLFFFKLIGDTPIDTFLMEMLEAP
Description: CV-1 cells were grown in DMEM supplemented with 10% resin-charcoal stripped fetal bovine serum, 50 U/ml penicillin G and 50 μg/ml streptomycin sulfate at 37° C. in 5% CO2. Cells were plated to 50-80% confluence one day prior to transfection using phenol red-free DMEM-FBS. The cells were transfected by lipofection using N-[1-(2,3-dioleoyloxy)propyl]-N,N,N-ammonium methyl sulfate according to manufacturer's instructions (Boehringer Mannheim).
Genes encoding the following full-length proteins, which are suitable for use in the studies described herein, were cloned into pCMX: human RXRα (Gene Bank accession X52773) and human LXRα (GenBank accession U22662). The cells were transfected with CMX-βgal and luciferase constructs. The CMX-βGal construct contained the ligand binding domain of human RXR (hRXRα) and the ligand binding domain of human LXRα (hLXRα) as indicated in FIG. 1. The luciferase reporter construct (LXREx3 TK-Luc) contained the herpes virus thymidine kinase promoter (−105/+51) linked to three copies of the response element LXRE. After transfection, the cells were treated with 20 μM of a synthetic azole test compound or vehicle alone for 40 hours in phenol red-free DMEM-FBS.
VP-L-hLXRα contains the transactivation domain of Herpes VP16, linked to the LBD of human LXRα, L-hRXRα is the LBD of human RXRα. UASGx4 TK-Luc was the reporter gene, and the assay additionally included the coactivator GAL4-SRC1. Treatment with 20 μM azole compound as indicated was able to inhibit interactions between LXRα-RXR heterodimers and the receptor interaction domains from the coactivator SRC1.

[2] = biological target: T2, LXRβ-RXR heterodimers / SRC-1 (Homo sapiens, UniProt P55055); experiment: In vitro coactivator recruitment/displacement assay (gel), LXRβ, RXR, GST-SRC-1, 32P-LXRE probe; type: biochemical; settings: 10 μM
T2 construct: made in house; host or cells: receptors translated in vitro
Description: This was tested more directly using an in vitro coactivator recruitment/coactivator displacement assay. This assay has the advantage that it is performed with receptors bound to DNA and that it measures a direct interaction between receptor and coactivator with no interference by other proteins that may indirectly stabilize the complex. The assay was performed by mixing in vitro translated LXRα or LXRβ, RXR, 5 μg of purified GST-SRC-1 and a ^32P-labeled LXRE probe with or without 10 μM Clotrimazole according to previously described methods. Wang et al., Mol. Cell 3:543-553, 1999. The complexes then were separated through 5.5% polyacrylamide gels. The probe used represents a DR-4 element derived from the human SREBP-1c promoter (nt 337-361, accession no. AB046200).

[3] = tested on: −241/+12 mSREBP-1c promoter; experiment: SREBP-1c promoter reporter assay in CV-1 cells; type: cell-based; settings: 10 μM
Description: This promoter is directly regulated by LXR via two LXREs present within the first 240 base pairs of the proximal promoter. Thus, we transfected CV-1 cells with the −241/+12 mSREBP-1c promoter along with LXRα or LXRβ. CV-1 cells were transiently transfected with full length LXRα or LXRβ, the SREBP-1c promoter or the SREBP-1c LXREm reporter and CMX-β-gal (as an internal control) in lipid-stripped serum. After transfection, the cells were treated with 10 μM Clotrimazole. The luciferase activity was normalized to the internal β-galactosidase control (reporter activity).

RXR = RXR (Homo sapiens, UniProt P19793); experiment: RXR activity (data not shown); type: cell-based
RXR, sequence (P19793 whole entry): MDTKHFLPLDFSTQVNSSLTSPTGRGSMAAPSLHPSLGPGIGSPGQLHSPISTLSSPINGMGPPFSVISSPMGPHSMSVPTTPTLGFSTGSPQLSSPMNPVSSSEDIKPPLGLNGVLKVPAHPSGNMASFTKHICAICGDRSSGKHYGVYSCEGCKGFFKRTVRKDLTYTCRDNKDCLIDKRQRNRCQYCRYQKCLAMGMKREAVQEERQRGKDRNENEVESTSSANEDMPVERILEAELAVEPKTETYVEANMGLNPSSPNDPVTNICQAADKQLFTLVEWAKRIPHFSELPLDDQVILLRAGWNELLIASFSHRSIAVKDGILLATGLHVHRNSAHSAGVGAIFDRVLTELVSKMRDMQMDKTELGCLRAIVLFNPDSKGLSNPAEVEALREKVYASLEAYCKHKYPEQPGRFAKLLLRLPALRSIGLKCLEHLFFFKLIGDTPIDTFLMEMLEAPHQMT

T2 sequence (P55055 whole entry): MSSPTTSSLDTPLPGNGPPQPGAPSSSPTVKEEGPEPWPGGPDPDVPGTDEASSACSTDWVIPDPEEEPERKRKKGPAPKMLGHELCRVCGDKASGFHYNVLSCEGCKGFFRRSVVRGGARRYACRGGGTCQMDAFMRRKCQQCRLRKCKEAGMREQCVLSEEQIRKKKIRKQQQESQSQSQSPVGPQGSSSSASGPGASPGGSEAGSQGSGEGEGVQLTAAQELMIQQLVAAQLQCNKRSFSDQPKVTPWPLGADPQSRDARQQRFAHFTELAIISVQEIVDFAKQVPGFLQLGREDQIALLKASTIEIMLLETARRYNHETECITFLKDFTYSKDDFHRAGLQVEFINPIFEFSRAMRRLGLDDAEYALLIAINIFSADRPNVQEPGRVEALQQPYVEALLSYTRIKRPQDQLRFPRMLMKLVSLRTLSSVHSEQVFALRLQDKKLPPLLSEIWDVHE
T2 sequence (P19793 whole entry partner): as the sequence (P19793 whole entry) above
human CAR, sequence (Q14994 whole entry): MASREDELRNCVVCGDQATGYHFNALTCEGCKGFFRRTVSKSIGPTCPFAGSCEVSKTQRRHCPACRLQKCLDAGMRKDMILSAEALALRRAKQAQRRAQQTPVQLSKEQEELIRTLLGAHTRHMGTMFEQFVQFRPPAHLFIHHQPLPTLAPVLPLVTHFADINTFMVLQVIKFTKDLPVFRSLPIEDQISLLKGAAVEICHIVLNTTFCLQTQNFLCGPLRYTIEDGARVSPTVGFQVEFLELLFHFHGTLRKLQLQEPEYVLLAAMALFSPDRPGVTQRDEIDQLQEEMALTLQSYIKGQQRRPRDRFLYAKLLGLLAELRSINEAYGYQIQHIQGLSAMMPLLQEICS

effect on LXRβ-RXR heterodimers (bound to LXRE probe) ([2]; lane 7): no effect | interaction of LXRβ-RXR with SRC-1 ([2]; lane 8): prevented the interaction with SRC-1 | effect on RXR activity (RXR): no effect
Structure (SMILES): Clc1ccccc1C(c1ccccc1)(c1ccccc1)n1ccnc1 [Clotrimazole]
SREBP-1c expression compared to T0901317 alone (SREBP-1c expression): significantly reduced | activity on human CAR (human CAR): antagonizes | toxicity (NIH 3T3-L1 cells): No toxicity | inhibition of LXR-coactivator association [1]: inhibition of LXR-coactivator association | SREBP-1c promoter activity ([3]; absence of LXR, lipid-stripped serum): repressed | SREBP-1c LXREm mutant promoter activity ([3]; both LXREs inactivated, absence or presence of LXR): did not repress the promoter activity | LXRα-induced SREBP-1c promoter activity ([3]; co-transfected LXRα): repressed the LXR-induced activity | LXRβ-induced SREBP-1c promoter activity ([3]; co-transfected LXRβ): repressed the LXR-induced activity
